Reference: US11053226B2, “KRAS G12C inhibitors and methods of using the same” (Amgen Inc., priority 2018, dated 2021)
Read-outs that look alike come from different tables or passages of the source.

Target: GDP-bound KRAS protein (aa 1-169), containing both G12C and C118A amino acid substitutions (Homo sapiens (Human), UniProt P01116, C118A/G12C)
Assay: Coupled Nucleotide Exchange Assay
Type: biochemical
Description: For compounds in Table 9, the following assay conditions were employed:
Coupled Nucleotide Exchange Assay:
The assay plates were then read on a PerkinElmer EnVision Multilabel Reader, using AlphaScreen® technology, and data were analyzed using a 4-parameter logistic model to calculate IC50 values.

[1] = read-out: Coupled Exchange IC50 (2 h), 2 h compound pre-incubation
[2] = read-out: Coupled Exchange IC50 (20 h), 20 h compound pre-incubation
[3] = first Coupled Exchange column, compound pre-incubation probably 5 min (rest of head not shown; b435 lists 5 min, 2 hours or 20 hours), read-out: Coupled Exchange IC50
[4] = read-out: Coupled Exchange IC50 (5 min), 5 min compound pre-incubation
[5] = second Coupled Exchange column, read-out: Coupled Exchange IC50
[6] = third Coupled Exchange column, compound pre-incubation probably 20 hours (rest of head not shown; b435 lists 5 min, 2 hours or 20 hours), read-out: Coupled Exchange IC50

Sequence of GDP-bound KRAS protein (aa 1-169), containing both G12C and C118A amino acid substitutions (P01116 other isoform, or with tags, fused parts or gaps G12C/C118A): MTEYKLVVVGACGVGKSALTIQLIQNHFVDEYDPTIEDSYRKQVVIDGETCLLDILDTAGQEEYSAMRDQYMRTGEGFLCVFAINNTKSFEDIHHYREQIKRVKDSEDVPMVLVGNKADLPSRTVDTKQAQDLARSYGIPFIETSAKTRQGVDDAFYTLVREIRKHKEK

| Compound | IC50 [1] | IC50 [2] | IC50 [3] | other results |
| --- | --- | --- | --- | --- |
| C=CC(=O)N1CC(NC(=O)Cn2ccc3cc(C#N)ccc32)C1 [Example 191] | > 250 µM | > 250 µM | – | – |
| C=CC(=O)N1CC(NC(=O)Cn2c(C(=O)OC)cc3cc(Br)ccc32)C1 [Example 181] | > 250 µM | 6.47 µM | – | – |
| C=CC(=O)N1CC(NC(=O)Cn2c3c(c4cc(Br)ccc42)CCN(C(C)=O)C3)C1 [Example 252] | 19.4 µM | 2.49 µM | – | – |
| C=CC(=O)N1CC(NC(=O)Cn2cc(-c3cc[nH]n3)c3ccc(-c4ccccc4Cl)cc32)C1 [Example 229] | 18.9 µM | 5.4 µM | – | – |
| C=CC(=O)N1CC(N(C)C(=O)Cn2c(C)c(-c3cncnc3C(C)C)c3cc(Cl)cc(C)c32)C1 [Example 339] | – | – | 2.88 µM | – |
| C=CC(=O)N1CC(NC(=O)Cn2ccc3cc(Br)c(C)cc32)C1 [Example 186] | 26.6 µM | 4.47 µM | – | IC50 [4]: > 250 µM |
| C=CC(=O)N1CC(NC(=O)Cn2cc(CC(=O)N3CCCC4(CCCN(C)C4)C3)c3cc(Br)ccc32)C1 (stereo not shown) [Example 322] | – | – | – | IC50 [5]: 2.07 µM |
| C=CC(=O)N1CC(NC(=O)Cn2c(C)c(-c3cccnc3Br)c3cc(Cl)ccc32)C1 [Example 305] | – | – | – | IC50 [5]: 2.98 µM; IC50 [6]: 0.81 µM |
| C=CC(=O)N1CC(NC(=O)Cn2c3c(c4cc(Br)ccc42)CCN(Cc2ccccc2)C3)C1 [Example 239] | > 250 µM | 44 µM | – | – |
| C=CC(=O)N1CC(NC(=O)Cn2cc(-c3ccc4ccccc4c3)c3cc(Br)cc(C)c32)C1 [Example 264] | 9.6 µM | 2.75 µM | – | – |
| C=CC(=O)N1CC(NC(=O)Cn2ccc3cc(Br)cc(C)c32)C1 [Example 190] | 16 µM | 1.76 µM | – | IC50 [4]: 193 µM |
| C=CC(=O)N1CC(NC(=O)Cn2c(C)c(-c3nccnc3Cl)c3cc(Cl)ccc32)C1 [Example 281] | – | – | – | IC50 [5]: 13.6 µM; IC50 [6]: 2.32 µM |
| C=CC(=O)N1CC(NC(=O)Cn2cc(C(=O)C(=O)O)c3ccccc32)C1 [Example 201] | > 250 µM | > 250 µM | – | – |
| C=CC(=O)N1CC(NC(=O)Cn2c(C)c(-c3cnccc3C#N)c3cc(Cl)ccc32)C1 [Example 314] | – | – | – | IC50 [5]: 11.7 µM |
| C=CC(=O)N1CC(NC(=O)Cn2c3ccccc3c3ccc(Cl)nc32)C1 [Example 280] | – | – | – | IC50 [5]: > 250 µM; IC50 [6]: > 62.5 µM |
| C=CC(=O)N1CC(NC(=O)Cn2cc(C(=O)C(=O)OCC)c3ccccc32)C1 [Example 200] | > 250 µM | > 250 µM | – | – |
| C=CC(=O)N1CC(NC(=O)Cn2c(C)c(-c3cnccc3C(C)C)c3cc(Cl)cc(C)c32)C1 [Example 325] | – | – | 1.55 µM | – |
| C=CC(=O)N1CC(N(C)C(=O)Cn2ccc3c(C)c(Br)ccc32)C1 [Example 350] | – | – | 237 µM | IC50 [6]: 1.53 µM |
| C=CC(=O)N1CC(NC(=O)Cn2c3ccc(Br)cc3c3ccc(Oc4ccc(F)cc4)nc32)C1 [Example 234] | > 250 µM | 0.32 µM | – | – |
| C=CC(=O)N1CC(NC(=O)Cn2ccc3cc(I)ccc32)C1 [Example 188] | 22.2 µM | 3.71 µM | – | – |
| C=CC(=O)N1CC(NC(=O)Cn2c3ccc(Br)cc3c3ccncc32)C1 [Example 259] | 26.8 µM | 2.88 µM | – | – |
| C=CC(=O)N1CC(NC(=O)Cn2ccc3cc(-c4ccccc4)ccc32)C1 [Example 237] | > 250 µM | > 250 µM | – | – |

| Compound | IC50 [1] | IC50 [2] | IC50 [3] | other results |
| --- | --- | --- | --- | --- |
| C=CC(=O)N1CC(NC(=O)Cn2cc([N+](=O)[O-])c3cc(Cl)ccc32)C1 [Example 240] | 13.1 µM | 1.33 µM | – | – |
| C=CC(=O)N1CC(NC(=O)Cn2c(C)c(-c3cncnc3C3CCCCC3)c3cc(Cl)cc(C)c32)C1 [Example 342] | – | – | 0.66 µM | – |
| C=CC(=O)N1CC(NC(=O)Cn2cc(-c3ccc(F)cc3F)c3cc(-c4ccc(F)cc4F)ccc32)C1 [Example 210] | > 250 µM | 10.9 µM | – | – |
| C=CC(=O)N1CC(NC(=O)CN2Cc3c(n(C(C)=O)c4ccc(Br)cc34)C2)C1 [Example 242] | > 250 µM | 7.66 µM | – | – |
| C=CC(=O)N1CC(NC(=O)Cn2c3c(c4cc(Br)ccc42)CCCC3=O)C1 [Example 262] | > 250 µM | 3.31 µM | – | – |
| C=CC(=O)N1CC(NC(=O)Cn2c(C)c(-c3cnccc3C3=CCC(C)CC3)c3cc(Cl)cc(C)c32)C1 (stereo not shown) [Example 334] | – | – | 0.37 µM | – |
| C=CC(=O)N1CC(NC(=O)Cn2ccc3cccc(CC#N)c32)C1 [Example 360] | – | – | > 250 µM | IC50 [6]: > 250 µM |
| C=C(CCO)C(=O)N1CC(NC(=O)Cn2c(C)c(C(=O)N3CCc4c(cccc4OC)C3)c3cc(Br)ccc32)C1 [Example 313] | – | – | – | IC50 [5]: > 250 µM |
| C=CC(=O)N1CC(NC(=O)Cn2cc(C)c3cc(Br)ccc32)C1 [Example 194] | 30.1 µM | 2.23 µM | – | IC50 [4]: 151 µM |
| C=CC(=O)N1CC(NC(=O)Cn2c3ccc(Br)cc3c3cc(Br)ccc32)C1 [Example 193] | > 250 µM | 0.39 µM | – | – |
| C=CC(=O)N1CC(NC(=O)Cn2c(-c3ccccc3)cc3cc(Br)ccc32)C1 [Example 243] | 18.2 µM | 2.82 µM | – | – |
| C=CC(=O)N1CC(NC(=O)Cn2c(C)c(-c3cncnc3C(C)C)c3cc(Cl)cc(C)c32)C1 [Example 338] | – | – | 2.87 µM | – |
| C=CC(=O)N1CC(NC(=O)Cn2cc(Cc3ccccc3)c3ccccc32)C1 [Example 213] | 31.1 µM | 5.09 µM | – | – |
| C=CC(=O)N1CC(C)(NC(=O)Cn2ccc3cc(Br)ccc32)C1 [Example 352] | – | – | > 250 µM | IC50 [6]: 25 µM |
| C=CC(=O)N1CC(NC(=O)Cn2cc(Br)c3cc([N+](=O)[O-])ccc32)C1 [Example 233] | 11.4 µM | 1.58 µM | – | IC50 [4]: > 250 µM |
| C=CC(=O)N1C[C@H](NC(=O)Cn2ccc3cc(Br)ccc32)[C@@H]1C [Example 363] | – | – | > 250 µM | IC50 [6]: 2.22 µM |
| C=CC(=O)N1CC(N(C)C(=O)Cn2c(C)cc3cc(Br)ccc32)C1 [Example 348] | – | – | 235 µM | IC50 [6]: 1.22 µM |
| C=CC(=O)N1CC(NC(=O)Cn2ccc3c(C)c(Br)ccc32)C1 [Example 349] | – | – | > 250 µM | IC50 [6]: 3.21 µM |
| C=CC(=O)N1CC(NC(=O)Cn2cc(I)c3cc(C(F)(F)F)ccc32)C1 [Example 257] | 9.12 µM | 0.97 µM | – | IC50 [4]: 64.7 µM |
| C=CC(=O)N1CC(NC(=O)Cn2c(C)c(-c3cnccc3C3=CCOCC3)c3cc(Cl)cc(C)c32)C1 [Example 341] | – | – | 2.44 µM | – |
| C=CC(=O)N1CC(NC(=O)Cn2ccc3cc(Br)ccc32)C1C (stereo not shown) [Example 361] | – | – | 231 µM | IC50 [6]: 3.04 µM |
| C=CC(=O)N1CC(N(C)C(=O)Cn2cc(C)c3cc(Br)ccc32)C1 [Example 355] | – | – | 155 µM | IC50 [6]: 1.7 µM |

| Compound | IC50 [1] | IC50 [2] | IC50 [3] | other results |
| --- | --- | --- | --- | --- |
| C=CC(=O)N1CC(NC(=O)Cn2cc(CC(=O)N3CCC4(CCOCC4)C3)c3cc(Br)ccc32)C1 [Example 328] | – | – | 31 µM | – |
| C=CC(=O)N1CC(NC(=O)Cn2c(C)c(-c3ccccc3C(C)(C)C)c3cc(Cl)ccc32)C1 [Example 318] | – | – | 16.2 µM | IC50 [5]: 98.9 µM |
| C=CC(=O)N1CC(NC(=O)Cn2ccc3cc(SC)ccc32)C1 [Example 266] | > 250 µM | > 62.5 µM | – | – |
| C=CC(=O)N1CC(NC(=O)Cn2cc(-c3cccc(C(C)C)c3)c3cc(Br)cc(C)c32)C1 [Example 268] | 6.81 µM | 1.62 µM | – | – |
| C=CC(=O)N1CC(NC(=O)Cn2c3c(c4cc(Br)ccc42)CCNC3)C1 [Example 250] | 89.4 µM | 5.69 µM | – | – |
| C=CC(=O)N1CC(NC(=O)Cn2c(C)c(-c3cccnc3N3CCC(C)CC3)c3cc(Cl)cc(C)c32)C1 [Example 344] | – | – | 0.88 µM | – |
| C=CC(=O)N1CC(NC(=O)Cn2c(C(=O)NCc3ccc(C(=O)O)s3)cc3cc(Br)ccc32)C1 [Example 225] | > 250 µM | 19.8 µM | – | – |
| C=CC(=O)N1CC(NC(=O)Cn2c(C3CC3)c(-c3cnccc3C(C)C)c3cc(Cl)cc(C)c32)C1 [Example 324] | – | – | 2.42 µM | – |
| C=CC(=O)N1C[C@@H](NC(=O)Cn2ccc3cc(Br)ccc32)[C@H]1C [Example 362] | – | – | > 250 µM | IC50 [6]: > 250 µM |
| C=CC(=O)N1CC(NC(=O)Cn2c(C)c(C(=O)OC(C)(C)C)c3cc([N+](=O)[O-])ccc32)C1 [Example 278] | – | – | – | IC50 [5]: 105 µM; IC50 [6]: > 250 µM |
| C=CC(=O)N1CC(NC(=O)Cn2ccc3cc(Cl)ccc32)C1 [Example 187] | > 250 µM | 7.27 µM | – | IC50 [4]: > 250 µM |
| C=CC(=O)N1CC(NC(=O)Cn2cc(-c3cccnc3)c3cc(Br)ccc32)C1 [Example 206] | 14.1 µM | 2.84 µM | – | – |
| C=CC(=O)N1CC(NC(=O)Cn2ccc3c(Cl)cccc32)C1 [Example 199] | > 250 µM | 21.6 µM | – | – |
| C=CC(=O)N1CC(NC(=O)Cn2cc(CC(=O)NCC3Cc4ccccc4CN3C)c3cc(Br)ccc32)C1 (stereo not shown) [Example 331] | – | – | 22.4 µM | – |
| C=CC(=O)N1CC(NC(=O)Cn2c(C)c(-c3ncccc3Cl)c3cc(Cl)ccc32)C1 [Example 306] | – | – | – | IC50 [5]: 9.53 µM; IC50 [6]: 1.64 µM |
| C=CC(=O)N1CC(NC(=O)Cn2cc(CC(=O)N3CCCCC3CN3CCCCC3)c3cc(Br)ccc32)C1 (stereo not shown) [Example 326] | – | – | 26.1 µM | – |
| C=CC(=O)N1CC(NC(=O)Cn2cc(CC#N)c3cc(Br)ccc32)C1 [Example 214] | 33.8 µM | 4.48 µM | – | – |
| C=CC(=O)N1CC(NC(=O)Cn2cc(-c3cocn3)c3ccc(-c4ccccc4Cl)cc32)C1 [Example 219] | > 250 µM | 2.87 µM | – | – |
| C=CC(=O)N1CC(NC(=O)Cn2c(C)c(-c3cccnc3OCC(C)C)c3cc(Cl)cc(C)c32)C1 [Example 345] | – | – | 4.43 µM | – |
| C=CC(=O)N1CC(NC(=O)Cn2c(C=O)cc3cc(Br)ccc32)C1 [Example 185] | > 250 µM | 15.9 µM | – | – |
| C=CC(=O)N1CC(NC(=O)Cn2c(-c3ccncc3)cc3ccccc32)C1 [Example 215] | > 250 µM | > 250 µM | – | – |
